Legend:
[1] = molecular target: hADORA1/CHO (hA1 expressing) cells (Homo sapiens (Human), UniProt P30542); assay: cell-based; conditions: FLIPR inhibition, 10 μM adenosine, read-out: cAMP & FLIPR IC50 (nM) hA1
Protocol: hADORA1/CHO (hA1 expressing) cells (Genscript) were plated at 1×10^4 cells/well into 384-well polystyrene plates one day before starting the experiment. On the day of experiment, the supernatant was discard and replaced with 40 μL of dye (FLIPR calcium 5 Assay Kit) per well and the plates were incubated for 60 mins at 37° C. plus 5% CO2. Then testing compounds were added at different concentrations for FLIPR™ inhibition assay. After a 400s incubation with compound, 10 μM adenosine was added into the cells, and the signal was captured by FLIPR.

hA2b/CHO = hA2b/CHO (Homo sapiens (Human), UniProt P29275); assay: cAMP inhibition assay in hA2b/CHO cells, 10 μM adenosine; format: cell-based; conditions: read-out: cAMP & FLIPR IC50 (nM) hA2b;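 also: cells exposed to compound 30 min at 37 °C, then stimulated with adenosine a further 30 min, cAMP read after 60 min at room temperature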
Protocol: (§1) hA2a/CHO, hA2b/CHO, hA3/CHO and mA2a/CHO (Genscript) were plated at 5×10^3 cells/well into 384-well polystyrene plates at the day of experiment. Compounds were pre-incubated with cells for 30 min at 37° C., 5% CO2. Then 10 μM adenosine was added to the cells and incubated for 30 min at 37° C., 5% CO2. Detection reagent (CISBIO) was added and the plates were incubated for 60 min at room temperature. The signal was captured by Envision.

hA2a/CHO = hA2a/CHO (Homo sapiens (Human), UniProt P29274); assay: cAMP inhibition assay in hA2a/CHO cells, 10 μM adenosine; format: cell-based; conditions: read-out: cAMP & FLIPR IC50 (nM) hA2a;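 also: compounds added to cells 30 min ahead of adenosine, then a further 30 min at 37 °C with adenosine before cAMP detection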
Protocol: as §1

mA2a/CHO = mA2a/CHO (Mus musculus (Mouse), UniProt Q60613); assay: cAMP inhibition assay in mA2a/CHO cells, 10 μM adenosine; format: cell-based; conditions: read-out: cAMP & FLIPR IC50 (nM) mA2a;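 also: compounds preincubated 30 min at 37 °C before the adenosine challenge, then 30 min further stimulation, readout after 60 min detection reagent incubation at room temperature in 384-well plates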
mA2a/CHO, sequence (Q60613 whole entry): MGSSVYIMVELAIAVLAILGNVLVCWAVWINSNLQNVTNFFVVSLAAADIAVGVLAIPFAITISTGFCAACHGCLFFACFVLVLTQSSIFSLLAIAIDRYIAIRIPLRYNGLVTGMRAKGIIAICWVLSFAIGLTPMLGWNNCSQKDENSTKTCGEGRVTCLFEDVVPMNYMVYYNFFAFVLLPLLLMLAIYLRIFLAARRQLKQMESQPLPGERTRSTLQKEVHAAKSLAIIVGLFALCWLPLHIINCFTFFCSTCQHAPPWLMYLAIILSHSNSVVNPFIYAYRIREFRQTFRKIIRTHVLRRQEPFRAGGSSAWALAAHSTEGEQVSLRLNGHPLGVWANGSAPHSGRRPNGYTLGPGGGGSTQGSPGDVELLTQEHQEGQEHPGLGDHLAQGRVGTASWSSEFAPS
Protocol: as §1

hADORA1/CHO (hA1 expressing) cells, sequence (P30542 whole entry): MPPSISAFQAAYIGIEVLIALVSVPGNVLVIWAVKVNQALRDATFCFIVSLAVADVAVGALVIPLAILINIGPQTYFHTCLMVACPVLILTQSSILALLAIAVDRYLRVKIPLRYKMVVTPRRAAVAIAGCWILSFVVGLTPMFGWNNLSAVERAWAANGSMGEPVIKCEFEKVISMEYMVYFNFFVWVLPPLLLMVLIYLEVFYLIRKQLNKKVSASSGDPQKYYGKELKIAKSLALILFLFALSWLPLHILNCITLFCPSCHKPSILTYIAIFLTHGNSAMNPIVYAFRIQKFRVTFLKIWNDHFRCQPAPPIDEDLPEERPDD
hA2b/CHO, sequence (P29275 whole entry): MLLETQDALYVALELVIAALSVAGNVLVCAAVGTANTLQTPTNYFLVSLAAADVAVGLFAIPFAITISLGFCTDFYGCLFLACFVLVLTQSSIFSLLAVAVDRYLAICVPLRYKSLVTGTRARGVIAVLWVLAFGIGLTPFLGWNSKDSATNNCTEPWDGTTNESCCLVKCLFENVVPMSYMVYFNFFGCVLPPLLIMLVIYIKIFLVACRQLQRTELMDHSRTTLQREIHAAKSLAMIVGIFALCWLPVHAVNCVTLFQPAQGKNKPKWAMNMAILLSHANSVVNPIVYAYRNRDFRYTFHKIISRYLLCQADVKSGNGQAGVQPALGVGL
hA2a/CHO, sequence (P29274 whole entry): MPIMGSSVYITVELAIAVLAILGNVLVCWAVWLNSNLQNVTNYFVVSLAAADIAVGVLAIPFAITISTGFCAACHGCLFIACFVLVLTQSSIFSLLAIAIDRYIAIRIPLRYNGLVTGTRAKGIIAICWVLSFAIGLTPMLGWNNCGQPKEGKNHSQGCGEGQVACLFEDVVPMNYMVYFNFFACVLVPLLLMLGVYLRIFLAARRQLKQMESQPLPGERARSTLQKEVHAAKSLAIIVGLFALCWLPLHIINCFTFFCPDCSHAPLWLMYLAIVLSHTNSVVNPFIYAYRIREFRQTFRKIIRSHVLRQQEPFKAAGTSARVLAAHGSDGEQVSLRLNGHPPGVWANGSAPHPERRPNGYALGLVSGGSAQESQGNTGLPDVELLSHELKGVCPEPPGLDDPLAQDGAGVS

Compound | IC50 [1] | IC50 (hA2b/CHO) | IC50 (hA2a/CHO) | IC50 (mA2a/CHO)
CC(O)Cn1cc(-c2nc(C(=O)NCc3c(F)cccc3F)c(N)nc2-c2ncco2)ccc1=O (single isomer, unassigned) [Example 107, 3-amino-N-(2,6-difluorobenzyl)-6-(1-(2-hydroxypropyl)-6-oxo-1,6-dihydropyridin-3-yl)-5-(oxazol-2-yl)pyrazine-2-carboxamide] | 341 nM | 3490 nM | 76 nM | 166 nM
CC(O)Cn1cc(-c2nc(C(=O)NCc3c(F)cccc3F)c(N)nc2-c2ncco2)ccc1=O (single isomer, unassigned) [Example 108, 3-amino-N-(2,6-difluorobenzyl)-6-(1-(2-hydroxypropyl)-6-oxo-1,6-dihydropyridin-3-yl)-5-(oxazol-2-yl)pyrazine-2-carboxamide] | 55 nM | 132 nM | 0.6 nM | 3.6 nM
Cc1cnc2ccc(-c3nc(C(=O)NCC4CCCCN4C)c(N)nc3-c3ncco3)cn12 (single isomer, unassigned; isomer 1) [Example 124, 3-amino-6-(3-methylimidazo[1,2-a]pyridin-6-yl)-N-((1-methylpiperidin-2-yl)methyl)-5-(oxazol-2-yl)pyrazine-2-carboxamide (isomer 1)] | 10000 nM | ≥ 10000 nM | 2260 nM | ≥ 10000 nM
Cc1cnc2ccc(-c3nc(C(=O)N[C@H]4CCCOC4)c(N)nc3-c3ncco3)cn12 (single isomer, unassigned; isomer 1) [Example 163, 3-amino-6-(3-methylimidazo[1,2-a]pyridin-6-yl)-5-(oxazol-2-yl)-N-(tetrahydro-2H-pyran-3-yl)pyrazine-2-carboxamide (isomer 1)] | > 10000 nM | 387 nM | 3.28 nM | 22 nM
Cc1cnc2ccc(-c3nc(C(=O)NCC4CCCCO4)c(N)nc3-c3ncco3)cn12 (single isomer, unassigned; isomer 1) [Example 165, 3-amino-6-(3-methylimidazo[1,2-a]pyridin-6-yl)-5-(oxazol-2-yl)-N-((tetrahydro-2H-pyran-2-yl)methyl) pyrazine-2-carboxamide (isomer 1)] | 207 nM | 73 nM | 0.24 nM | 1.42 nM
Cc1cnc2ccc(-c3nc(C(=O)NCC4CC(=O)N(C)C4)c(N)nc3-c3ncco3)cn12 (single isomer, unassigned; isomer 1) [Example 213, 3-amino-N-((1-methyl-5-oxopyrrolidin-3-yl)methyl)-6-(3-methylimidazo[1,2-ajpyridin-6-yl)-5-(oxazol-2-yl)pyrazine-2-carboxamide (isomer 1)] | 505 nM | 2530 nM | 22 nM | 54 nM
Cc1cnc2ccc(-c3nc(C(=O)NCC4CN(C)CCO4)c(N)nc3-c3ccc(F)cc3)cn12 (single isomer, unassigned; isomer 1) [Example 246, 3-amino-5-(4-fluorophenyl)-6-(3-methylimidazo[1,2-a]pyridin-6-yl)-N-((4-methylmorpholin-2-yl)methyl) pyrazine-2-carboxamide (isomer 1)] | 44 nM | 1100 nM | 17 nM | 67 nM
COC(C)CNC(=O)c1nc(-c2ccc3ncc(C)n3c2)c(-c2ncco2)nc1N (single isomer, unassigned; isomer 1) [Example 248, 3-amino-N-(2-methoxypropyl)-6-(3-methylimidazo[1,2-a]pyridin-6-yl)-5-(oxazol-2-yl)pyrazine-2-carboxamide (isomer 1)] | 121 nM | 140 nM | 2.9 nM | 18 nM
Cc1cnc2ccc(-c3nc(C(=O)NCC4(C)CCOC4)c(N)nc3-c3ncco3)cn12 (single isomer, unassigned; isomer 1) [Example 251, 3-amino-6-(3-methylimidazo[1,2-a]pyridin-6-yl)-N-((3-methyltetrahydrofuran-3-yl)methyl)-5-(oxazol-2-yl)pyrazine-2-carboxamide (isomer 1)] | 425 nM | 657 nM | 4.7 nM | 34 nM
Cc1cnc2ccc(-c3nc(C(=O)N[C@@H]4CCCOC4)c(N)nc3-c3ncco3)cn12 (single isomer, unassigned; isomer 2) [Example 164, 3-amino-6-(3-methylimidazo[1,2-a]pyridin-6-yl)-5-(oxazol-2-yl)-N-(tetrahydro-2H-pyran-3-yl)pyrazine-2-carboxamide (isomer 2)] | > 10000 nM | 479 nM | 0.94 nM | 12.7 nM
Cc1cnc2ccc(-c3nc(C(=O)NCC4CCCCO4)c(N)nc3-c3ncco3)cn12 (single isomer, unassigned; isomer 2) [Example 166, 3-amino-6-(3-methylimidazo[1,2-a]pyridin-6-yl)-5-(oxazol-2-yl)-N-((tetrahydro-2H-pyran-2-yl)methyl) pyrazine-2-carboxamide (isomer 2)] | 358 nM | 47 nM | 0.24 nM | 1.48 nM
Cc1cnc2ccc(-c3nc(C(=O)NCC4CC(=O)N(C)C4)c(N)nc3-c3ncco3)cn12 (single isomer, unassigned; isomer 2) [Example 210, 3-amino-N-((1-methyl-5-oxopyrrolidin-3-yl)methyl)-6-(3-methylimidazo[1,2-a]pyridin-6-yl)-5-(oxazol-2-yl)pyrazine-2-carboxamide (isomer 2)] | 14700 nM | 972 nM | 11 nM | 88 nM
COC(C)CNC(=O)c1nc(-c2ccc3ncc(C)n3c2)c(-c2ncco2)nc1N (single isomer, unassigned; isomer 2) [Example 241, 3-amino-N-(2-methoxypropyl)-6-(3-methylimidazo[1,2-a]pyridin-6-yl)-5-(oxazol-2-yl)pyrazine-2-carboxamide (isomer 2)] | 272 nM | 205 nM | 4 nM | 27 nM
Cc1cnc2ccc(-c3nc(C(=O)NCC4(C)CCCN4C)c(N)nc3-c3ncco3)cn12 (single isomer, unassigned; isomer 2) [Example 247, 3-amino-N-((1,2-dimethylpyrrolidin-2-yl)methyl)-6-(3-methylimidazo[1,2-a]pyridin-6-yl)-5-(oxazol-2-yl)pyrazine-2-carboxamide (isomer 2)] | 1490 nM | 2000 nM | 36 nM | 345 nM
Cc1cnc2ccc(-c3nc(C(=O)NCC4CN(C)CCO4)c(N)nc3-c3ccc(F)cc3)cn12 (single isomer, unassigned; isomer 2) [Example 250, 3-amino-5-(4-fluorophenyl)-6-(3-methylimidazo[1,2-a]pyridin-6-yl)-N-((4-methylmorpholin-2-yl)methyl) pyrazine-2-carboxamide (isomer 2)] | 36 nM | 212 nM | 5 nM | 31 nM
Cc1cnc2ccc(-c3nc(C(=O)NCC4(C)CCOC4)c(N)nc3-c3ncco3)cn12 (single isomer, unassigned; isomer 2) [Example 252, 3-amino-6-(3-methylimidazo[1,2-a]pyridin-6-yl)-N-((3-methyltetrahydrofuran-3-yl)methyl)-5-(oxazol-2-yl)pyrazine-2-carboxamide (isomer 2)] | 260 nM | 821 nM | 2.9 nM | 30 nM
CN1CCCC1CNC(=O)c1nc(-c2ccc3ncc(Cl)n3c2)c(-c2ncco2)nc1N (stereo in doubt) [Cmpd. 209, 3-amino-6-[3-chloroimidazo[1,2-a]pyridin-6-yl]-N-[[(2S)-1-methylpyrrolidin-2-yl]methyl]-5-(1,3-oxazol-2-yl)pyrazine-2-carboxamide] | > 10000 nM | 1260 nM | 14 nM | 134 nM
CNCCOc1cccnc1CNC(=O)c1nc(-c2ccc3ncc(C)n3c2)c(-c2ccc(F)cc2)nc1N [Cmpd. 199, 3-amino-5-(4-fluorophenyl)-N-([3-[2-(methylamino)ethoxy]pyridin-2-yl]methyl)-6-[3-methylimidazo[1,2-a]pyridin-6-yl]pyrazine-2-carboxamide] | 34 nM | 102 nM | 0.7 nM | 1.6 nM
Cc1cnc2ccc(-c3nc(C(=O)NC[C@H]4CCN(C(=O)C5CC5)C4)c(N)nc3-c3ncco3)cn12 [Cmpd. 219, 3-amino-N-[[(3R)-1-cyclopropanecarbonylpyrrolidin-3-yl]methyl]-6-[3-methylimidazo[1,2-a]pyridin-6-yl]-5-(1,3-oxazol-2-yl)pyrazine-2-carboxamide] | > 10000 nM | 2300 nM | 4.9 nM | 220 nM
Cc1cnc2ccc(-c3nc(C(=O)NC[C@@H]4CCN(C(=O)C5CC5)C4)c(N)nc3-c3ncco3)cn12 [Cmpd. 221, 3-amino-N-[[(3S)-1-cyclopropanecarbonylpyrrolidin-3-yl]methyl]-6-[3-methylimidazo[1,2-a]pyridin-6-yl]-5-(1,3-oxazol-2-yl)pyrazine-2-carboxamide] | 7540 nM | 1030 nM | 1.6 nM | 33 nM
Cc1cnc2ccc(-c3nc(C(=O)NCc4cccc(N[C@H]5C[C@@H](N(C)C)C5)n4)c(N)nc3-c3ncco3)cn12 [Cmpd. 224, Cis-3-amino-6-[3-methylimidazo[1,2-a]pyridin-6-yl]-5-(1,3-oxazol-2-yl)-N-[(6-[[3-(di-methylamino)cyclobutyl]amino]pyridin-2-yl)methyl]pyrazine-2-carboxamide] | 7880 nM | 245 nM | 3.2 nM | 27 nM
